Data as given in US6534522B2, “Subtype-selective NMDA receptor ligands and the use thereof” (Warner-Lambert Company, priority 1995, dated 2003).
Structures can show the parent of a compound that is named as a salt. Where two headings read alike, the source gives them in different places.

Experiments:
[1] = molecular target: NR1A/2C NMDA receptor (Rattus norvegicus, UniProt P35439+Q00961); assay: Xenopus oocyte expression system, two-electrode voltage clamp, NR1A/2C; type: cell-based
Excerpt: (§1) Electrophysiological assays may be utilized to characterize the actions of potential subtype-selective ligands at NMDA receptors expressed in Xenopus oocytes. The ligand may be assayed at the different subunit combinations of cloned rat NMDA receptors corresponding to the four putative NMDA receptor subtypes (Moriyoshi et al., Nature (Lond.) 354:31-37 (1991); Monyer et al., Science (Washington, D.C.) 256:1217-1221 (1992); Kutsuwada et al., Nature (Lond.) 358:36-41 (1992); Sugihara et al., Biochem. Biophys. Res. Comm. 185:826-832 (1992)).
(§2) Using fixed saturating concentrations of agonists (glutamate 100 μM, glycine 1-10 μM depending on subunit combination), the inhibitory potency of a putative subtype-selective ligand may be assayed at the NMDA receptors assembled from NR1A/2A, NR1A/2B, NR1A/2C and NR1A/2D subunit combinations.
(§3) The Xenopus oocyte expression system. Mature female Xenopus laevis were anaesthetized (20-40 min) using 0.15% 3-aminobenzoic acid ethyl ester (MS-222) and 2-4 ovarian lobes were surgically removed. Oocytes at developmental stages IV-VI (Dumont, J. N., J. Morphol. 136:153-180 (1972)), were dissected from the ovary still surrounded by enveloping ovarian tissues. Follicle-enclosed oocytes were micro-injected with 1:1 mixtures of cRNA:NR1A+NR2A, 2B, 2C or 2D; injecting ˜2, 5, or 20 ng of RNA encoding each receptor subunit. NR1A encoding cRNA was injected alone at ˜20 ng. Oocytes were stored in Barth's medium containing (in mM): NaCl, 88; KCl, 1; CaCl2, 0.41; Ca(NO3)2, 0.33; MgSO4, 0.82; NaHCO3, 2.4; HEPES 5; pH 7.4, with 0.1 mg/mL gentamycin sulphate. While oocytes were still surrounded by enveloping ovarian tissues the Barth's medium was supplemented with 0.1% bovine serum. Oocytes were defolliculated 1-2 days following injections by treatment with collagenase (0.5 mg/mL Sigma Type I for 0.5-1 hr) (Miledi and Woodward, J. Physiol. (Lond.) 416:601-621 (1989)) and subsequently stored in serum-free medium.
(§4) Electrical recordings were made using a conventional two-electrode voltage clamp (Dagan TEV-200) over periods ranging between 3-21 days following injection. Oocytes were placed in a 0.1 mL recording chamber continuously perfused (5-15 mL min^−1) with frog Ringer's solution containing (in mM): NaCl, 115; KCl, 2; CaCl2, 1.8; HEPES, 5; pH 7.4. Drugs were applied by bath perfusion. When using the more rapid flow rates, half-times for mid-chamber solution changes were between 2-3 sec, however, exchange rates for drug solutions at the oocyte surface (i.e. beneath the vitelline envelope and among the tangles of microvilli) were probably considerably longer (Woodward et al., Mol. Pharmacol. 41:89-103 (1992)). Zero-Ca^2+/Ba^2+ Ringer had the composition (in mM): NaCl, 115; KCl, 2; BaCl2, 1.8; HEPES, 5; pH 7.4. Intraoocyte injections were made by pneumatic pressure-pulse ejection from micropipettes (Miledi and Parker, J. Physiol. (Lond.) 357:173-183 (1984)). Injection solutions of EGTA (40-400 mM) and BAPTA (50-500 mM) were made up in H2O, pH adjusted to 7.4 with KOH or HCl, and filtered to minimize plugging (Acrodisc-13, […]). Pressure was set between 200-400 kPa. The volume of injections was regulated by adjusting the time of pulses (0.1-1 sec) and was estimated by measuring the diameters of ejected droplets.
(§5) Concentration-inhibition curves were fit with equation 2.
(§6) I/Icontrol=1/(1+([antagonist]/10^−pIC50)^n) Eq. 2
(§7) in which Icontrol is the current evoked by agonists alone, pIC50=−log IC50, […] is the concentration of antagonist that produces half maximal inhibition, and n is the slope factor. For incomplete curves analysis by fitting was unreliable and IC50 values were calculated by simple regression over linear portions of the curves (Origin: Microcal Software).
(§8) Drugs were initially dissolved at concentrations of 10-100 mM in DMSO. Dilutions were then made to generate a series of DMSO stock solutions over the range 10 μM to 100 mM. Working solutions were made by 1000-3000 fold dilution of stocks into Ringer. […]

[2] = molecular target: NR1A/2A NMDA receptor (Rattus norvegicus, UniProt P35439+Q00959); assay: Xenopus oocyte expression system, two-electrode voltage clamp, NR1A/2A; type: cell-based
NR1A/2A NMDA receptor, sequence (Q00959 20-1464 limits assumed, other chains not shown): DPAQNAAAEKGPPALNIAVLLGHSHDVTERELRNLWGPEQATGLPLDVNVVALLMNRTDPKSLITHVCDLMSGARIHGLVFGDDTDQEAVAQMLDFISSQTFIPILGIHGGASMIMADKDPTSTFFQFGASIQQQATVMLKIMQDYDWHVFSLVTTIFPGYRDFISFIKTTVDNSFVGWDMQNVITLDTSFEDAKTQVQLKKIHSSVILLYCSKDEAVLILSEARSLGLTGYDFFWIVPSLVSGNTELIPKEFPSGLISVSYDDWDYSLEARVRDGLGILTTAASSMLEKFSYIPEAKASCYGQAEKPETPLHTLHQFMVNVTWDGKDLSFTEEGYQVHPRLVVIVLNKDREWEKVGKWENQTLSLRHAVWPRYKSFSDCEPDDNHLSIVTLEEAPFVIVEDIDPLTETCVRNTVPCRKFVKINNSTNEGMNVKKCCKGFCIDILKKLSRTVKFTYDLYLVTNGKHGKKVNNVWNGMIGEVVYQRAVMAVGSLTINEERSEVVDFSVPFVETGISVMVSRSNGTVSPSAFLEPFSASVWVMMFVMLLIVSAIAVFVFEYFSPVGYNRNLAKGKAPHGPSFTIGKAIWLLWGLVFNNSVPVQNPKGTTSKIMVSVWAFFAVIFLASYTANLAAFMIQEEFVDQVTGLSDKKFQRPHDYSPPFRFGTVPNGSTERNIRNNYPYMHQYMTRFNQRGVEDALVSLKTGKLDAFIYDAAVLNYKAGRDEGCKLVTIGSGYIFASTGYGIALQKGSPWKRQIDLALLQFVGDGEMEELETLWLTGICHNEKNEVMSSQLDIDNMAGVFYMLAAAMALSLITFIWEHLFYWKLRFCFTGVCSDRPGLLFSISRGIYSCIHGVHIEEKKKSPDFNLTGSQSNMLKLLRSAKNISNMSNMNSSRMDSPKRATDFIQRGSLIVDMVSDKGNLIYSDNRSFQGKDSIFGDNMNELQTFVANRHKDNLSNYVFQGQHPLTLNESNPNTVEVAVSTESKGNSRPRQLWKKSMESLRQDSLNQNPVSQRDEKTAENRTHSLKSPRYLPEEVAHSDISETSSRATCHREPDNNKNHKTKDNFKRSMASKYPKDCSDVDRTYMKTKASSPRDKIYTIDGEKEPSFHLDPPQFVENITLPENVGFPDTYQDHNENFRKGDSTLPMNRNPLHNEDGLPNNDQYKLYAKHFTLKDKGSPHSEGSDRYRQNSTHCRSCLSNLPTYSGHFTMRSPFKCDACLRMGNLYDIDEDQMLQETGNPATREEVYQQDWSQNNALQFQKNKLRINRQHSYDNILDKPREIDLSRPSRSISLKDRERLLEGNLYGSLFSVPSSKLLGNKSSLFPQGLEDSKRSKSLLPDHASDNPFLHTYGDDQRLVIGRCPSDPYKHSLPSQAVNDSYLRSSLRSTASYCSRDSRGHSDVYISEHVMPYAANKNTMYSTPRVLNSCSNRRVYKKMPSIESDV
Excerpt: as §1, §2, §3, §4, §5, §6, §7, §8

[3] = molecular target: NR1A/2B NMDA receptor (Rattus norvegicus, UniProt P35439+Q00960); assay: Xenopus oocyte expression system, two-electrode voltage clamp, NR1A/2B; type: cell-based
NR1A/2B NMDA receptor, sequence (Q00960 27-1482, other chains not shown): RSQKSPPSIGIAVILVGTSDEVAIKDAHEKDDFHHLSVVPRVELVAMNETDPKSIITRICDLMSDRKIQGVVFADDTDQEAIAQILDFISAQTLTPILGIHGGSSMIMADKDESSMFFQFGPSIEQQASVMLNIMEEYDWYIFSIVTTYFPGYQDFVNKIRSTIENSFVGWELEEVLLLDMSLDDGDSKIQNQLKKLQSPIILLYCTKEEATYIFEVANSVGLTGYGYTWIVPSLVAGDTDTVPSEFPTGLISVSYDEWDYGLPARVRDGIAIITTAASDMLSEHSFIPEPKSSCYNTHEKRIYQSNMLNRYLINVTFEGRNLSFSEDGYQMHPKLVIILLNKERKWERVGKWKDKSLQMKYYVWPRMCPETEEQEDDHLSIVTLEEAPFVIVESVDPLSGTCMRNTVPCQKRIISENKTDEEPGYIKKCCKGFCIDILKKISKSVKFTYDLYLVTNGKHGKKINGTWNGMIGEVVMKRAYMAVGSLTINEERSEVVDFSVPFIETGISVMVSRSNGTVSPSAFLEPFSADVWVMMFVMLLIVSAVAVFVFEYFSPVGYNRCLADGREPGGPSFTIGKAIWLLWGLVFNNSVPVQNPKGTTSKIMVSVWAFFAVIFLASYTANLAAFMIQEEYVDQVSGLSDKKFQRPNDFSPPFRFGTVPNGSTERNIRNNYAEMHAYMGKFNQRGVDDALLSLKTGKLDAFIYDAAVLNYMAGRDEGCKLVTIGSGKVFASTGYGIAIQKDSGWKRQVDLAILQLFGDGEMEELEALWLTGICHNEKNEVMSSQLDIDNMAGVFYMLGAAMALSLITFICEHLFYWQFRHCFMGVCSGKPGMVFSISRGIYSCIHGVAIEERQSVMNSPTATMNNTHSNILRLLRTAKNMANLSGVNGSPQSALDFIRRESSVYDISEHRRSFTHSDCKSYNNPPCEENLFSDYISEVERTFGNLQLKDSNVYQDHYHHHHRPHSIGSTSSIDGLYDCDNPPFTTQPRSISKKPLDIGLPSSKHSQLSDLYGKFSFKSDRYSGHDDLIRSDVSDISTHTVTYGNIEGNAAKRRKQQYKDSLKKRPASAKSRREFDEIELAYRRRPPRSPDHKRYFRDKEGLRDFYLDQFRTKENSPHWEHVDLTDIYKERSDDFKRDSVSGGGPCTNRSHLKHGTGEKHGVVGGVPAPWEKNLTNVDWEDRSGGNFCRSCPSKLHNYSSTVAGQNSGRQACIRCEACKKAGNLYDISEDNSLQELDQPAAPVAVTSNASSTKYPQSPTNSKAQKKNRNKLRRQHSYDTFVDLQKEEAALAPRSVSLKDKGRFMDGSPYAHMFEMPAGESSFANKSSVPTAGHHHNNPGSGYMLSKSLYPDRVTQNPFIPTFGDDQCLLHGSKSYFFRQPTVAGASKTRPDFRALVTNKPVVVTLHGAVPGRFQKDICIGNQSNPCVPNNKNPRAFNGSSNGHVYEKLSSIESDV
Excerpt: as §1, §2, §3, §4, §5, §6, §7, §8

[4] = cloned NR1A/2C subunits expressed in Xenopus oocytes, inhibition of agonist-evoked membrane current, read-out: 1A/2C IC50
[5] = cloned NR1A/2A subunits expressed in Xenopus oocytes, inhibition of agonist-evoked membrane current, read-out: 1A/2A IC50
[6] = cloned NR1A/2B subunits expressed in Xenopus oocytes, inhibition of agonist-evoked membrane current, read-out: 1A/2B IC50

NR1A/2C NMDA receptor, sequence (Q00961 20-1237, other chains not shown): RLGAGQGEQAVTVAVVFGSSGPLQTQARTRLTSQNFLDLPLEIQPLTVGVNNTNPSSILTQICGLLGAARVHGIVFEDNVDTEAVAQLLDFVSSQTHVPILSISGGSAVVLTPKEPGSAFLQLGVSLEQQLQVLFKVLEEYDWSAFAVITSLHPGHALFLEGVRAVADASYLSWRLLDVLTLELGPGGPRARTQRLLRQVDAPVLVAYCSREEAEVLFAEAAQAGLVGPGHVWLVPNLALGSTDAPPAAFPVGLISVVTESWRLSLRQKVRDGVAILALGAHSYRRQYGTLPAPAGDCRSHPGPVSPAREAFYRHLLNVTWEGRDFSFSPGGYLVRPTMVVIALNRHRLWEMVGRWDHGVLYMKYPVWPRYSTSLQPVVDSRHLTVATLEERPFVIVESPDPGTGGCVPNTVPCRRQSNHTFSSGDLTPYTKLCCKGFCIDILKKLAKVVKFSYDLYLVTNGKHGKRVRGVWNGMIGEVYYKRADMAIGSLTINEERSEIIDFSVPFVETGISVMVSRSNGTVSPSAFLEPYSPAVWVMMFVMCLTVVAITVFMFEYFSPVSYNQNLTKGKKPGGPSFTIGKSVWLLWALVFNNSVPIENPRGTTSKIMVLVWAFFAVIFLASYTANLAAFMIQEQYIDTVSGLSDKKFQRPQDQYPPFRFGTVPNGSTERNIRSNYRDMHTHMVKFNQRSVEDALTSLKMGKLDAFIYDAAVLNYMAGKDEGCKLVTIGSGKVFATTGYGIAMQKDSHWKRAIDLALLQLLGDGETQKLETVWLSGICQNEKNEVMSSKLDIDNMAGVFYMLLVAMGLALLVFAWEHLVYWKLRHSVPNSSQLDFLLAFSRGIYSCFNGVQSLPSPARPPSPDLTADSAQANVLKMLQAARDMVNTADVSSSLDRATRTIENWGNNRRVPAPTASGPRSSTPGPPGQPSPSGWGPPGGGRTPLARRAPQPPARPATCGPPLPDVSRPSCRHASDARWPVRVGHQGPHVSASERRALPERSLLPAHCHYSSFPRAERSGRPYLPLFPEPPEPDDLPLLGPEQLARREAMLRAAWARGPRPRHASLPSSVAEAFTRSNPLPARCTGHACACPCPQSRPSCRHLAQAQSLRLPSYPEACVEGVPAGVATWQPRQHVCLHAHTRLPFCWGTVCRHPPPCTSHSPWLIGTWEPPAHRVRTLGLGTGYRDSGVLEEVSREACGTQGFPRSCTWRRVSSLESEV

Compound | melting point | IC50 [2, 5] | IC50 [3, 6] | other results
O=C(CCCN1CCc2c([nH]c3ccccc23)C1)c1ccc(F)cc1 | 188 to 190 °C | – | – | –
Br.c1ccc(CC2CCCN(CCCOc3ccccc3)C2)cc1 (stereo not shown) | 148 to 149 °C | – | – | –
OCCCN1CCC(Cc2ccccc2)CC1 (as salt: hydrobromid) [Ex. 83, 4-Benzyl-1-(3-hydroxypropyl)piperidine hydrobromide] | 122 to 124 °C | – | – | –
OCCCCN1CCC(Cc2ccccc2)CC1 (as salt: hydrobromid) [Ex. 86, 4-Benzyl-1-(4-hydroxybutyl)piperidine hydrobromide] | 129 to 130 °C | – | – | –
OCCCN1CCC(Cc2ccc(Cl)cc2)CC1 (as salt: hydrobromid) [Ex. 89, 4-(4-Chlorobenzyl)-1-(3-hydroxypropyl) piperidine hydrobromide] | 139.5 to 140 °C | – | – | –
COc1ccc(CC2CCN(CCCO)CC2)cc1 (as salt: hydrobromid) [Ex. 93, 1-(3-Hydroxypropyl)-4-(4-methoxybenzyl) piperidine hydrobromide] | 129 to 131 °C | – | – | –
OC1(Cc2ccccc2)CCN(CCCc2ccccc2)CC1 (as salt: hydrochloride) [Ex. 16, 4-Benzyl-4-hydroxy-1-(3-phenylpropyl)piperidine] | 156 to 157 °C | – | – | –
c1ccc(OCCN2CCc3ccccc3C2)cc1 (as salt: hydrochloride) [Ex. 18, N-(2-Phenoxyethyl)-1,2,3,4-tetrahydroisoquinoline] | 181 to 182 °C | – | – | –
c1ccc(OCCCN2CCc3ccccc3C2)cc1 (as salt: hydrochloride) [Ex. 19, N-(3-Phenoxypropyl)-1,2,3,4-tetrahydroisoquinoline] | 194 to 195 °C | – | – | –
O=C(c1ccccc1)C1CCN(CCOc2ccccc2)CC1 (as salt: hydrochloride) [Ex. 27, 4-Benzoyl-1-(2-phenoxyethyl)piperidine] | 161 to 162 °C | – | – | –
CC(O)CCN1CCC(Cc2ccc(F)cc2)CC1 (stereo not shown) (as salt: hydrochloride) [Ex. 91, 4-(4-Fluorobenzyl)-1-(3-hydroxybutyl) piperidine hydrochloride] | 99 to 103 °C | – | – | –
c1ccc(OCCCN2CCc3c([nH]c4ccccc34)C2)cc1 [Ex. 25, 2-(3-Phenoxypropyl)-1,2,3,4-tetrahydro-9H-pyrido[3,4-b]indole] | 123 to 124 °C | 60 µM | 9 µM | IC50 [1, 4]: 175 µM
c1ccc(CCCN2CCc3c([nH]c4ccccc34)C2)cc1 [Ex. 26, 2-(3-Phenylpropyl)-1,2,3,4-tetrahydro-9H-pyrido[3,4-b]indole] | 130 to 131 °C | 30 µM | 15 µM | IC50 [1, 4]: 105 µM
OCCN1CCC(Cc2ccccc2)CC1 [Ex. 82, 4-Benzyl-1-(2-hydroxyethyl)piperidine] | 62 to 64 °C | 290 µM | 3.3 µM | IC50 [1, 4]: > 300 µM
CC(CCO)N1CCC(Cc2ccccc2)CC1 (stereo not shown) [Ex. 84, 4-Benzyl-1-(3-hydroxy-1-methylpropyl)piperidine] | 74 to 76 °C | 270 µM | 6 µM | IC50 [1, 4]: > 300 µM
OCC(O)CN1CCC(Cc2ccccc2)CC1 (stereo not shown) [Ex. 85, 4-Benzyl-1-(2,3-dihydroxypropyl)piperidine] | 92 to 94 °C | > 300 µM | 6 µM | IC50 [1, 4]: > 300 µM
CC(C)(O)CCN1CCC(Cc2ccccc2)CC1.Cl [Ex. 102, 4-benzyl-1-(3-hydroxy-3-methylbutyl) piperidine hydrochloride] | 136 to 138 °C | – | – | IC50 [1]: > 300 µM; IC50 [2]: > 300 µM; IC50 [3]: 3.5 µM

Further lines, with some results ahead:

melting point | IC50 [2, 5] | IC50 [3, 6] | Compound | other results
108 to 110 °C | – | – | OCCCN1CCC(Cc2ccc(F)cc2)CC1 (as salt: hydrobromid) [Ex. 90, 4-(4-Fluorobenzyl)-1-(3-hydroxypropyl) piperidine hydrobromide] | –
148 to 151 °C | – | – | COc1ccc(C(=O)C2CCN(CCCO)CC2)cc1 (as salt: hydrobromid) [Example 78, 1-(3-Hydroxypropyl)-4-(4-methoxybenzoyl)piperidine] | –
128 to 130 °C | – | – | C[C@@H](CO)CN1CCC(Cc2ccc(F)cc2)CC1 (as salt: hydrochloride) [Ex. 92, (R)-4-(4-Fluorobenzyl)-1-(3-hydroxy-2-methylpropyl) piperidine hydrochloride] | –
155 to 160 °C | – | – | CC(O)CCN1CCC(Cc2ccc(N)cc2)CC1 (stereo not shown) (as salt: hydrochloride) [Ex. 105, 4-(4-aminobenzyl)-1-(3-hydroxy-butyl) piperidine hydrochloride] | –
210 to 215 °C (dec.) | – | – | O=c1[nH]c2ccc(OCCCN3CCc4ccccc4C3)cc2[nH]1 (as salt: hydrochloride) [Ex. 108, N-(3-(2-oxobenzimidazol-5-oxy)propyl)-1,2,3,4-tetrahydroisoquinoline] | –
243 to 245 °C (dec.) | – | – | Clc1ccc(CC2CCN(C3CCc4ccccc4C3)CC2)cc1 (stereo not shown) (as salt: hydrochloride) [Example 98, 4-(4-Chlorobenzyl)-1-(tetralin-2-yl)piperidine hydrochloride] | –
105 to 107 °C | 260 µM | 280 µM | CC(O)CCN1CCC(Cc2ccc([N+](=O)[O-])cc2)CC1.Cl (stereo not shown) [Ex. 101, 4-(4-nitrobenzyl)-1-(3-hydroxybutyl) piperidine hydrochloride] | –
153 to 155 °C | 3.5 µM | 0.2 µM | Oc1ccc(CCNC2=NCC(Cc3ccccc3)CN2)cc1 (stereo not shown) [Ex. 103, 2-[2-(4-Hydroyphenyl)ethylamino]-5-benzyl-1,3-diazacyclohexene] | IC50 [1, 4]: 58 µM
214 to 215 °C (dec.) | 8.5 µM | 5 µM | Br.Fc1ccc(OCCNN2CCC(Cc3ccc(Cl)cc3)CC2)cc1 [Ex. 106, 4-(4-Chlorobenzyl)-1-(N-(2-(4-fluorophenoxy)ethyl)amino)piperidine hydrobromide] | IC50 [1, 4]: 23 µM
178 to 179 °C | 250 µM | 160 µM | Cl.Oc1ccc(OCCN2CCC(C[C@]34C[C@H]5C[C@H](C[C@H](C5)C3)C4)CC2)cc1 [Ex. 107, 4-(1-Adamantylmethyl)-1-(2-(4-hydroxyphenoxy)ethyl)piperidine] | IC50 [1, 4]: 75 µM
106 to 108 °C | – | – | O=C(c1ccc(F)cc1)C1CCN(CCCO)CC1 [Example 77, 4-(p-fluorobenzoyl)-1-(3-hydroxypropyl)piperidine] | –
77 to 80 °C | – | – | O=C(c1ccccc1O)C1CCN(CCCO)CC1 [Example 79, 4-(2-Hydroxybenzoyl)-1-(3-hydroxypropyl)piperidine] | –
